Results on eleven compounds are retold here after publication PMC6105673 (Nature Communications, 2018).

For experiment [1], the target named is T1, pVHL-elongin B-elongin C (VBC) complex (Homo sapiens, UniProt P40337+Q15369+Q15370).
T1 construct: a construct encoding N-terminal GST-tagged pVHL19 (54–213); GST (N, cleaved yes); made in house; host or cells: BL21(DE3) E. coli
The experiment in a line: Biolayer interferometry kinetic analysis of VBC complex binding to biotinylated HIF-2α peptides. As to conditions: for ka (association rate): purified VBC; for binding to VBC compared to WT (in words): HIF-2αOH peptides (523–541). On the procedure:
Absorbance was read at 450 nm. […] The data were analyzed based on a 1:1 binding model using the BLItz Pro software with the fitted curves shown as gray lines. […] Values represent mean of three experiments conducted with independently purified protein ± SEM. * denotes uncharacterized band
Multiple concentrations of purified VBC complex were diluted in kinetics buffer and allowed to associate with immobilized peptide over 120 s. Subsequently, the SA-BLI probe was immersed into kinetics buffer for 120 s to allow for dissociation. The data were analyzed, step corrected, reference corrected, and fit to a global 1:1 binding model. Kd, ka, and kd were calculated using the BLItz Pro software.
On the technique in general: Biolayer interferometry detects binding as a change in optical thickness at a sensor tip.

In another experiment the test system is HIS6-PHD2 (181–426). The experiment in a line: In vitro hydroxylation assay (HIS6-PHD2 treatment, then IVTT pVHL pull-down). The following applies: unmodified biotinylated peptides, 15 μg/mL HIS6-PHD2 (181–426), 1 h room temperature, then IVTT HA-VHL30 under stringent buffer. It counts as biochemical. On the procedure: Considering that prolyl hydroxylation is indispensable for HIF-2α binding to pVHL, we next examined the notion that the A530V mutation negatively influences hydroxylation of HIF-2α via PHD2, which would attenuate HIF-2α A530V binding affinity for pVHL. We conducted an in vitro hydroxylation assay utilizing unmodified peptides (amino acids 523–542) incubated with purified HIS6-PHD2 (catalytic core, amino acids 181–426).
Fig. 5 A subset of class 1 mutations specifically disrupts PHD2-mediated hydroxylation. a, b Biotinylated HIF-2α peptides (residues 523–542) were immobilized on streptavidin- agarose beads and incubated with HIS6-PHD2 for 1 h at room temperature prior to incubation with in vitro transcribed and translated (IVTT) pVHL. Streptavidin beads were pulled down (PD) and levels of HA-tagged pVHL were visualized via immmunoblotting (IB). c HEK293a cells were co-transfected with FLAG-VHL and HA-HIF-2α constructs. FLAG was immunoprecipitated (IP) and levels of HA-tagged HIF-2α were visualized via immunoblotting (IB). * denotes uncharacterized band
The in vitro pVHL-HIF-2α hydroxylation assay was performed according to a previously published protocol. 5 μg of biotinylated HIF-2α peptide was immobilized on streptavidin-agarose beads. Subsequently, peptides were incubated with 15 μg/mL HIS6-PHD2 (181–426) in 500 μL of 40 mM HEPES pH 7.4, 80 mM KCl, 5 mM a-ketoglutarate, 2 mM ascorbic acid, 100 μM FeCl2 tetrahydrate solution at room temperature for 1 h. FeCl2 was stored under anoxic conditions to prevent oxidation. Following hydroxylation, beads were washed 5x with EBC buffer and peptides were incubated with IVTT HA-VHL30 under the stringent buffer conditions described above.

The mark [2] stands for this setting: BLItz biolayer interferometry, peptide (523–541) immobilized, global 1:1 model, mean of three experiments ± SEM.

No end group written: not given here. *: point of attachment. Biotin = O=C1N[C@H]2[C@H](CS[C@H]2CCCCC(=O)*)N1

T1 sequence (P40337 54-213): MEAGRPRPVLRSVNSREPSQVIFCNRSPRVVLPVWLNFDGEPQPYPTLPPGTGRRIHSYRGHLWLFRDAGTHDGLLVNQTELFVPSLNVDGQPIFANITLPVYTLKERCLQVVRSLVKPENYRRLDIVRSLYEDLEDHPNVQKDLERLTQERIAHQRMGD
T1 sequence (Q15370 whole entry partner): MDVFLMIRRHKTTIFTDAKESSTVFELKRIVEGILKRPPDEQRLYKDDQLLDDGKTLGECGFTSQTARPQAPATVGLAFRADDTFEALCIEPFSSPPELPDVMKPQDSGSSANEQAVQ
T1 sequence (Q15369 17-112 partner limits assumed): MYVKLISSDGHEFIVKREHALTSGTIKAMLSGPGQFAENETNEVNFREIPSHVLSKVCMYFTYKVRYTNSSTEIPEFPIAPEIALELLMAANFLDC

With `CC[C@H](C)[C@H](NC(=O)[C@H](Cc1ccc(O)cc1)NC(=O)[C@@H]1C[C@@H](O)CN1C(=O)[C@@H](NC(=O)[C@H](CC(C)C)NC(=O)[C@@H](NC(=O)[C@H](CCC(=O)O)NC(=O)[C@H](CC(C)C)NC(=O)[C@H](CC(=O)O)NC(=O)[C@H](CC(C)C)NC(=O)[C@H](CCC(=O)O)NC(=O)CCCC[C@@H]1SC[C@@H]2NC(=O)N[C@@H]21)[C@@H](C)O)[C@@H](C)O)C(=O)N1CCC[C@H]1C(=O)N[C@@H](CCSC)C(=O)N[C@@H](CC(=O)O)C(=O)NCC(=O)N[C@@H](CCC(=O)O)C(=O)N[C@@H](CC(=O)O)C(=O)N[C@@H](Cc1ccccc1)C(=O)N[C@@H](CCC(N)=O)C(N)=O` [HIF-2αOH (A530T)], the “ka (association rate)” value in experiment [1] (setting [2]) is reported as 3.4 ± 0.3 x10^4 Ms^−1.

For the compound `CC[C@H](C)[C@H](NC(=O)[C@H](Cc1ccc(O)cc1)NC(=O)[C@@H]1C[C@@H](O)CN1C(=O)[C@@H](NC(=O)[C@H](CC(C)C)NC(=O)[C@@H](NC(=O)[C@H](CCC(=O)O)NC(=O)[C@H](CC(C)C)NC(=O)[C@H](CC(=O)O)NC(=O)[C@H](CC(C)C)NC(=O)[C@H](CCC(=O)O)NC(=O)CCCC[C@@H]1SC[C@@H]2NC(=O)N[C@@H]21)[C@@H](C)O)C(C)C)C(=O)N1CCC[C@H]1C(=O)N[C@@H](CCSC)C(=O)N[C@@H](CC(=O)O)C(=O)NCC(=O)N[C@@H](CCC(=O)O)C(=O)N[C@@H](CC(=O)O)C(=O)N[C@@H](Cc1ccccc1)C(=O)N[C@@H](CCC(N)=O)C(N)=O` [HIF-2αOH (A530V)], the “ka (association rate)” value in experiment [1] (setting [2]) is given as 2.7 ± 0.2 x10^4 Ms^−1.

Consider `CC[C@H](C)[C@H](NC(=O)[C@H](Cc1ccc(O)cc1)NC(=O)[C@@H]1C[C@@H](O)CN1C(=O)[C@H](C)NC(=O)[C@H](CC(C)C)NC(=O)[C@@H](NC(=O)[C@H](CCC(=O)O)NC(=O)[C@H](CC(C)C)NC(=O)[C@H](CC(=O)O)NC(=O)[C@H](CC(C)C)NC(=O)[C@H](CCC(=O)O)NC(=O)CCCC[C@@H]1SC[C@@H]2NC(=O)N[C@@H]21)[C@@H](C)O)C(=O)N1CCC[C@H]1C(=O)N[C@@H](CCSC)C(=O)N[C@@H](CC(=O)O)C(=O)NCC(=O)N[C@@H](CCC(=O)O)C(=O)N[C@@H](CCC(=O)O)C(=O)N[C@@H](Cc1ccccc1)C(=O)N[C@@H](CCC(N)=O)C(N)=O` [HIF-2αOH (D539E)], for which the “binding to VBC compared to WT (in words)” value in experiment [1] (BLI) is “little defect”. Besides, the “ka (association rate)” value in experiment [1] (setting [2]) is on record as 3.6 ± 0.05 x10^4 Ms^−1.

In the case of `CC[C@H](C)[C@H](NC(=O)[C@H](Cc1ccc(O)cc1)NC(=O)[C@@H]1C[C@@H](O)CN1C(=O)[C@H](C)NC(=O)[C@H](CC(C)C)NC(=O)[C@@H](NC(=O)[C@H](CCC(=O)O)NC(=O)[C@H](CC(C)C)NC(=O)[C@H](CC(=O)O)NC(=O)[C@H](CC(C)C)NC(=O)[C@H](CCC(=O)O)NC(=O)CCCC[C@@H]1SC[C@@H]2NC(=O)N[C@@H]21)[C@@H](C)O)C(=O)N1CCC[C@H]1C(=O)N[C@@H](CCSC)C(=O)N[C@@H](CC(=O)O)C(=O)NCC(=O)N[C@@H](CCC(=O)O)C(=O)N[C@@H](CC(=O)O)C(=O)N[C@@H](CC(C)C)C(=O)N[C@@H](CCC(N)=O)C(N)=O` [HIF-2αOH (F540L)], the “ka (association rate)” value in experiment [1] (BLI, 1:1 model) was 31000 M/s; in experiment [1] (setting [2]), 3.1 ± 0.3 x10^4 Ms^−1.

On to `CC[C@H](C)[C@H](NC(=O)[C@H](Cc1ccc(O)cc1)NC(=O)[C@@H]1C[C@@H](O)CN1C(=O)[C@H](C)NC(=O)[C@H](CC(C)C)NC(=O)[C@@H](NC(=O)[C@H](CCC(=O)O)NC(=O)[C@H](CC(C)C)NC(=O)[C@H](CC(=O)O)NC(=O)[C@H](CC(C)C)NC(=O)[C@H](CCC(=O)O)NC(=O)CCCC[C@@H]1SC[C@@H]2NC(=O)N[C@@H]21)[C@@H](C)O)C(=O)N1CCC[C@H]1C(=O)N[C@@H](CCSC)C(=O)N[C@@H](CC(=O)O)C(=O)N[C@@H](CCCNC(=N)N)C(=O)N[C@@H](CCC(=O)O)C(=O)N[C@@H](CC(=O)O)C(=O)N[C@@H](Cc1ccccc1)C(=O)N[C@@H](CCC(N)=O)C(N)=O` [HIF-2αOH (G537R)], for which the “ka (association rate)” value in experiment [1] (BLI, 1:1 model) is 30000 M/s; in experiment [1] (setting [2]) it was 3.0 ± 0.2 x10^4 Ms^−1.

For `CC[C@H](C)[C@H](NC(=O)[C@@H]1CCCN1C(=O)[C@@H](NC(=O)[C@H](Cc1ccc(O)cc1)NC(=O)[C@@H]1C[C@@H](O)CN1C(=O)[C@H](C)NC(=O)[C@H](CC(C)C)NC(=O)[C@@H](NC(=O)[C@H](CCC(=O)O)NC(=O)[C@H](CC(C)C)NC(=O)[C@H](CC(=O)O)NC(=O)[C@H](CC(C)C)NC(=O)[C@H](CCC(=O)O)NC(=O)CCCC[C@@H]1SC[C@@H]2NC(=O)N[C@@H]21)[C@@H](C)O)[C@@H](C)CC)C(=O)N[C@@H](CC(=O)O)C(=O)NCC(=O)N[C@@H](CCC(=O)O)C(=O)N[C@@H](CC(=O)O)C(=O)N[C@@H](Cc1ccccc1)C(=O)N[C@@H](CCC(N)=O)C(N)=O` [HIF-2αOH (M535I)], the “binding to VBC compared to WT (in words)” value in experiment [1] (BLI) is “little defect”. The “ka (association rate)” value in experiment [1] (setting [2]) is given as 3.1 ± 0.2 x10^4 Ms^−1.

Turning to `CC[C@H](C)[C@H](NC(=O)[C@H](CS)NC(=O)[C@@H]1C[C@@H](O)CN1C(=O)[C@H](C)NC(=O)[C@H](CC(C)C)NC(=O)[C@@H](NC(=O)[C@H](CCC(=O)O)NC(=O)[C@H](CC(C)C)NC(=O)[C@H](CC(=O)O)NC(=O)[C@H](CC(C)C)NC(=O)[C@H](CCC(=O)O)NC(=O)CCCC[C@@H]1SC[C@@H]2NC(=O)N[C@@H]21)[C@@H](C)O)C(=O)N1CCC[C@H]1C(=O)N[C@@H](CCSC)C(=O)N[C@@H](CC(=O)O)C(=O)NCC(=O)N[C@@H](CCC(=O)O)C(=O)N[C@@H](CC(=O)O)C(=O)N[C@@H](Cc1ccccc1)C(=O)N[C@@H](CCC(N)=O)C(N)=O` [HIF-2αOH (Y532C)], the “ka (association rate)” value in experiment [1] (setting [2]) is recorded as 4.9 ± 0.2 x10^4 Ms^−1.

In the case of `CC[C@H](C)[C@H](NC(=O)[C@H](Cc1ccc(O)cc1)NC(=O)[C@@H]1C[C@@H](O)CN1C(=O)[C@H](C)NC(=O)[C@H](CC(C)C)NC(=O)[C@@H](NC(=O)[C@H](CCC(=O)O)NC(=O)[C@H](CC(C)C)NC(=O)[C@H](CC(=O)O)NC(=O)[C@H](CC(C)C)NC(=O)[C@@H](N)CCC(=O)O)[C@@H](C)O)C(=O)N1CCC[C@H]1C(=O)N[C@@H](CCSC)C(=O)N[C@@H](CC(=O)O)C(=O)NCC(=O)N[C@@H](CCC(=O)O)C(=O)N[C@@H](CC(=O)O)C(=O)N[C@@H](Cc1ccccc1)C(=O)N[C@@H](CCC(N)=O)C(N)=O` [HIF-2αOH (wild-type)], the “ka (association rate)” value in experiment [1] (BLI, 1:1 model) is 41000 M/s; in experiment [1] (setting [2]) it was 4.1 ± 0.4 x10^4 Ms^−1.

On to “Bio-HIF-2α(A530T): unmodified HIF-2α peptide (523–542) with A530T mutation (Biotin-ELDLETLTPYIPMDGEDFQL-NH2; SMILES CC[C@H](C)[C@H](NC(=O)[C@H](Cc1ccc(O)cc1)NC(=O)[C@@H]1CCCN1C(=O)[C@@H](NC(=O)[C@H](CC(C)C)NC(=O)[C@@H](NC(=O)[C@H](CCC(=O)O)NC(=O)[C@H](CC(C)C)NC(=O)[C@H](CC(=O)O)NC(=O)[C@H](CC(C)C)NC(=O)[C@H](CCC(=O)O)NC(=O)CCCC[C@@H]1SC[C@@H]2NC(=O)N[C@@H]21)[C@@H](C)O)[C@@H](C)O)C(=O)N1CCC[C@H]1C(=O)N[C@@H](CCSC)C(=O)N[C@@H](CC(=O)O)C(=O)NCC(=O)N[C@@H](CCC(=O)O)C(=O)N[C@@H](CC(=O)O)C(=O)N[C@@H](Cc1ccccc1)C(=O)N[C@@H](CCC(N)=O)C(=O)N[C@@H](CC(C)C)C(N)=O)”, for which the “binding to pVHL following HIS6-PHD2 treatment (immunoblot, in words)” value (“binding … (immunoblot, in words)” for short) in the experiment with HIS6-PHD2 (181–426) is on record as “only minimally able to bind pVHL”.

Regarding “Bio-HIF-2α(A530V): unmodified HIF-2α peptide (523–542) with A530V mutation (Biotin-ELDLETLVPYIPMDGEDFQL; UniProt Q99814 523-542, looked up, fragment A530V)”, the “binding … (immunoblot, in words)” value with HIS6-PHD2 (181–426) is recorded as “only minimally able to bind pVHL”.

With “HIF-2α (wild-type): biotinylated non-hydroxylated wild-type HIF-2α peptide, residues 523–541”, the “binding … (immunoblot, in words)” value in the experiment on HIS6-PHD2 (181–426) was “failed to bind pVHL”.
